Measured values published in patent publication US12473283B2, “Compounds and their use” (Debiopharm International S.A., priority 2019, dated 2025).
≈ marks a conversion by molar mass, not a printed value. Read-outs that look alike come from different tables or passages of the source.

Tests used:
[1] = test system: S. aureus ATCC 29213; experiment: Broth microdilution MIC assay; type: cell-based; conditions: Staphylococcus aureus, ATCC29213; CA-MHB, 35° C., 20 hours
Procedure: (§1) The antibacterial activity of FabI inhibitors against select Gram-negative and Gram-positive bacterial species including susceptible and multi-drug resistant A. baumannii, E. coli, K. pneumoniae and S. aureus was tested using the broth microdilution Minimal Inhibitory Concentration (MIC) assay following CLSI guidelines for insoluble compounds. Test articles were serially diluted 2-fold in 100% dimethyl sulfoxide (DMSO) and then diluted 100-fold into cation adjusted Mueller-Hinton broth (CA-MHB) to achieve a 10-point test concentration range in 1% DMSO. Final compound concentrations were 0.016-8 μg/ml for S. aureus or 0.06-32 μg/ml for the Gram-negative species. MIC test plates were then prepared by transferring 100 μl of the final assay medium (test article in CA-MHB, 1% DMSO) into the appropriate wells of a sterile, low binding 96-well polystyrene plate. Direct colony suspension inoculums of the test strains were freshly prepared per CLSI guidelines, and the appropriate test wells were inoculated to achieve a final bacterial cell density of 5×10^5 CFU/ml. Growth control (no test article) and negative control (no bacterial inoculum) wells were also included. Exposure to light was minimized during all stages of assay preparation. […] Bacterial growth was then determined by measuring the optical density at 600 nm (OD600) using a SpectraMax Plus plate-reader spectrophotometer.

[2] = test system: K. pneumoniae A6030827; experiment: Broth microdilution MIC assay; type: cell-based; conditions: Klebsiella pneumoniae, CA-MHB, 35° C., 20 hours
Procedure: as §1

[3] = test system: E. coli AG100; experiment: Broth microdilution MIC assay; type: cell-based; conditions: Escherichia coli, CA-MHB, 35° C., 20 hours
Procedure: as §1

[4] = test system: A. baumannii ATCC BAA1605; experiment: Broth microdilution MIC assay; type: cell-based; conditions: Acinetobacter baumannii, ATCCBAA1605; CA-MHB, 35° C., 20 hours
Procedure: as §1

[5] = target: FabI enzyme from Acinetobacter baumannii (Acinetobacter baumannii, UniProt D0CAD5); experiment: Inhibition of FabI enzyme, rate of NADH consumption; type: biochemical
Sequence of FabI enzyme from Acinetobacter baumannii (D0CAD5 entry or part of it): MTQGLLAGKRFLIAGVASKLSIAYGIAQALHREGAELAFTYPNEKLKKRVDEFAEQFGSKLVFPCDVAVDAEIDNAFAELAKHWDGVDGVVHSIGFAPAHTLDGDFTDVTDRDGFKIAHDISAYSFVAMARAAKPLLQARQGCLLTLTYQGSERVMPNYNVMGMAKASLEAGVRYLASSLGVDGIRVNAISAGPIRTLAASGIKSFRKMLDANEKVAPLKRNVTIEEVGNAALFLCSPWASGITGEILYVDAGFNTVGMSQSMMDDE
Procedure: Inhibition of FabI enzyme from Acinetobacter baumannii and Escherichia coli was tested by measuring the rate of NADH consumption (Δabsorbance at 340 nm/min) at 30° C. in 96-well plate format using an automated plate reader in the presence or absence of the test compounds. The assay mixture contained 100 mM Tris-HCl, pH 7.25 (A. baumannii) or 7.5 (E. coli), 100 mM ammonium acetate, 0.02% (A. baumannii) or 0.05% (E. coli) Pluronic F-68, 25 μM crotonyl ACP, 50 μM NADH, 25 pM (A. baumannii) or 50 pM (E. coli) recombinant FabI protein, and 7.5% DMSO. Test compounds were added at concentrations ranging from 0.17 to 10,000 nM in a final well volume of 100 μl. This dose-response inhibitory assay was performed using a 10-point, serial dilution series for each test compound. IC50 values for each test compound were assigned from logistical sigmoid curve-fitting of the inhibition dose response curves.

[6] = test system: A. baumannil ATCC 17978; experiment: Mouse lung infection model; type: in vivo, BALB/c mice; conditions: 3 mg/kg q12h SC
Procedure: (§2) Groups of 5 female specific-pathogen-free BALB/c mice weighing 18±2 g were used. In the 24 hr model (bacterial counts determined 24 hr after treatment start), mice were rendered neutropenic with cyclophosphamide intraperitoneal (IP) administration conducted at Days −4 (150 mg/kg), and day −1 (100 mg/kg). In the 72 hr model (bacterial counts determined 72 hr after treatment start), animals were rendered persistently neutropenic for the duration of the infection period with cyclophosphamide intraperitoneal (IP) administration conducted at Days −4 (150 mg/kg), −1 (100 mg/kg) and +1 (100 mg/kg). Persistent neutropenia is required to prevent pathogen clearance from lung tissue in the 74 hr model. Nutritional supplementation (diet gel) plus saline SC injections were provided daily to help animals tolerate the cyclophosphamide treatment.
On day 0, animals were anesthetized with etomidate-lipuro emulsion (20 mg/10 mL; 20 mg/kg dose, IV) and then inoculated intranasally with an A. baumannil ATCC 17978 suspension, 1.36×10^5 CFU/mouse, 0.02 mL/mouse. Vehicle control (40% Captisol), positive control (tigecycline) or test substances were then administered 2 hr post infection by the subcutaneous (SC) route of administration. Each dosing group consisted of 5 female mice. The MICs of the compounds against the test strain were 8 μg/ml and 0.5 μg/ml for compound 201 and compound 200, respectively. At 26 or 74 hours after inoculation (24 or 72 hr after treatment initiation), animals were euthanized with CO2 asphyxiation and the lung tissue harvested from each of the test animals. The tissues were homogenized in 1 ml of PBS, pH 7.4 with a homogenizer. Homogenates, 0.1 mL, were used for serial 10-fold dilutions and plated onto MacConkey II agar for colony counts. Efficacy is calculated as the change in log CFU/g […] vs. the time 0 (treatment initiation) control.

[7] = test system: Acinetobacter baumannii ATCC 17978; experiment: Mouse thigh infection model; type: in vivo, BALB/c mice; conditions: 3 mg/kg q12h SC
Procedure: as §2, with “thigh” for “lung”
On day 0, animals were inoculated intramuscularly (0.1 ml/thigh) with a 1.67×10^4 inoculum count of Acinetobacter baumannii ATCC 17978. Vehicle control (40% Captisol), positive control (tigecycline) or test substances were then administered 2 hr post infection by the subcutaneous (SC) route of administration. Each dosing group consisted of 5 female mice. The MICs of the compounds against the test strain were 8 μg/ml, 2 μg/ml and […] for compound 201, compound 71 and compound 200, respectively. At 26 or 74 hours after inoculation (24 or 72 hr after treatment initiation), animals were euthanized with CO2 asphyxiation and the thigh tissue harvested from each of the test animals. The tissues were homogenized in 3 mL of PBS, pH 7.4 with a homogenizer. Homogenates, 0.1 mL, were used for serial 10-fold dilutions and plated onto NB agar for colony counts. Efficacy is calculated as the change in log CFU/g thigh vs. the time 0 (treatment initiation) control.

[8] = recombinant FabI, 30° C., pH 7.25, read-out: A. baumannii Fabl IC50
[9] = total daily dose 6 mg/kg, 24 hr treatment
[10] = total daily dose 6 mg/kg, 72 hr treatment

| IC50 [5, 8] [nM] | SMILES | MIC [1] [µg/mL] | MIC [2] [µg/mL] | MIC [3] [µg/mL] | MIC [4] [µg/mL] | other results |
| --- | --- | --- | --- | --- | --- | --- |
| – | Cc1oc2ccccc2c1CN(C)C(=O)/C=C/c1cnc2c(c1)CCC(N)C(=O)N2.Cl (stereo not shown) [Compound 94, (E)-3-(7-amino-8-oxo-6,7,8,9-tetrahydro-5H-pyrido[2,3-b]azepin-3-yl)-N-methyl-N-((2-methylbenzofuran-3-yl)methyl)acrylamide hydrochloride] | ≤ 4 | ≤ 4 | 16 | ≤ 4 | IC50 [5]: < 10 nM |
| < 10 | Cc1c(CN(C)C(=O)/C=C/c2cnc3c(c2)CCC(N(C)C)C(=O)N3)oc2ccccc12 (stereo not shown) [Compound 95, (E)-3-(7-(dimethylamino)-8-oxo-6,7,8,9-tetrahydro-5H-pyrido[2,3-b]azepin-3-yl)-N-methyl-N-((3-methylbenzofuran-2-yl)methyl)acrylamide] | ≤ 4 | ≤ 4 | ≤ 4 | ≤ 4 | – |
| – | CN(C)c1cc(NC(=O)CNC(C)(C)C)c(O)c2c1C[C@H]1C[C@H]3[C@H](N(C)C)C(O)=C(C(N)=O)C(=O)[C@@]3(O)C(O)=C1C2=O [Tigecycline, reference compound] | – | – | – | – | Mean change log CFU/g lung 24 hr ([6]; 24 hr, vs. time 0 control): −3.44 log CFU/g lung; Mean change log CFU/g lung 72 hr ([6]; 72 hr, vs. time 0 control): −4.74 log CFU/g lung; Mean Log CFU/g lung 24 hr [6, 9]: 2.87 log CFU/g lung; Mean Log CFU/g lung 72 hr [6, 10]: 1.57 log CFU/g lung; Mean Change log CFU/g thigh 24 hr ([7]; 24 hr, vs. time 0 control): −2.48 log CFU/g thigh; Mean Change log CFU/g thigh 72 hr ([7]; 72 hr, vs. time 0 control): −3.48 log CFU/g thigh; Mean Log CFU/g thigh 24 hr [7, 9]: 2.37 log CFU/g thigh; Mean Log CFU/g thigh 72 hr [7, 10]: 1.36 log CFU/g thigh |
| < 10 | Cc1c(CN(C)C(=O)/C=C/c2cnc3c(c2)CC[C@H](N2CC(O)C2)C(=O)N3)oc2ccccc12 (single isomer, unassigned) [Compound 171] | ≤ 4 | ≤ 4 | ≤ 4 | ≤ 4 | – |
| – | Cc1c(CN(C)C(=O)/C=C/c2cnc3c(c2)CC[C@H](N)C(=O)N3)oc2ccc(Oc3cccnc3)cc12.Cl (single isomer, unassigned) [Compound 151] | ≤ 4 | ≤ 4 | ≤ 4 | – | – |
| – | Cc1c(CN(C)C(=O)/C=C/c2cnc3c(c2)CC[C@H](N)C(=O)N3)sc2ccccc12.Cl (single isomer, unassigned) [Compound 119] | ≤ 4 | ≤ 4 | ≤ 4 | ≤ 4 | – |
| – | Cc1c(CN(C)C(=O)/C=C/c2cnc3c(c2)CC[C@H](N)C(=O)N3)oc2cccc(F)c12.Cl (single isomer, unassigned) [Compound 130] | ≤ 4 | ≤ 4 | ≤ 4 | ≤ 4 | – |
| – | Cc1c(CN(C)C(=O)/C=C/c2cnc3c(c2)CCC(N)C(=O)N3)oc2c(Cl)cccc12.O=C(O)C(F)(F)F (stereo not shown) [Compound 92, (E)-3-(7-amino-8-oxo-6,7,8,9-tetrahydro-5H-pyrido[2,3-b]azepin-3-yl)-N-((7-chloro-3-methylbenzofuran-2-yl)methyl)-N-methylacrylamide 2,2,2-trifluoroacetate] | ≤ 4 | ≤ 4 | ≤ 4 | 8 | IC50 [5]: < 10 nM |
| – | Cc1c(CN(C)C(=O)/C=C/c2cnc3c(c2)CC[C@H](N)C(=O)N3)oc2c(F)cccc12.Cl (single isomer, unassigned) [Compound 107] | ≤ 4 | ≤ 4 | ≤ 4 | ≤ 4 | – |
| < 10 | Cc1c(CN(C)C(=O)/C=C/c2cnc3c(c2)CCC(N2CC4(CCOCC4)C2)C(=O)N3)oc2ccccc12 (stereo not shown) [Compound 176, (E)-N-methyl-N-((3-methylbenzofuran-2-yl)methyl)-3-(8-oxo-7-(7-oxa-2-azaspiro[3.5]nonan-2-yl)-6,7,8,9-tetrahydro-5H-pyrido[2,3-b]azepin-3-yl)acrylamide] | ≤ 4 | ≤ 4 | ≤ 4 | ≤ 4 | – |
| – | Cc1c(CN(C)C(=O)/C=C/c2cnc3c(c2)CC[C@H](N)C(=O)N3)oc2cccc(CNc3cccnc3)c12.Cl.Cl (single isomer, unassigned) [Compound 167] | ≤ 4 | ≤ 4 | ≤ 4 | ≤ 4 | – |
| < 10 | Cc1c(CN(C)C(=O)/C=C/c2cnc3c(c2)CCC(N2CCS(=O)(=O)CC2)C(=O)N3)oc2ccccc12 (stereo not shown) [Compound 179, (E)-3-(7-(1,1-dioxidothiomorpholino)-8-oxo-6,7,8,9-tetrahydro-5H-pyrido[2,3-b]azepin-3-yl)-N-methyl-N-((3-methylbenzofuran-2-yl)methyl)acrylamide] | ≤ 4 | 8 (≈ 15.3 µM) | 8 (≈ 15.3 µM) | ≤ 4 | – |
| < 10 | Cc1c(CN(C)C(=O)/C=C/c2cnc3c(c2)CC[C@H](N(C)C)C(=O)N3)oc2ccccc12 (single isomer, unassigned) [Compound 96] | ≤ 4 | ≤ 4 | 8 (≈ 18.5 µM) | ≤ 4 | – |
| – | Cc1c(CN(C)C(=O)/C=C/c2cnc3c(c2)CC[C@H](N)C(=O)N3)oc2c(Cl)cccc12.Cl (single isomer, unassigned) [Compound 98] | ≤ 4 | ≤ 4 | ≤ 4 | ≤ 4 | – |
| – | Cc1c(CN(C)C(=O)/C=C/c2cnc3c(c2)CC[C@H](N)C(=O)N3)sc2c(F)cccc12.Cl (single isomer, unassigned) [Compound 140] | ≤ 4 | ≤ 4 | ≤ 4 | ≤ 4 | – |
